Measured values reported in publication PMC7331731, “Activity of vitamin D receptor agonists against dengue virus” (Scientific Reports, 2020).

Experiments:
DENV 2 [1] = assay: DENV 2 virus titer in supernatant by standard plaque assay (infected HEK293T/17 cells); format: cell-based, dengue virus; settings: for EC50: HEK293T/17 cells, DENV 2 MOI 5, post-infection treatment, virus titer at 24 h by plaque assay; for virus titer, treatment at 6 and 12 h post-infection: read at 24 h.p.i.
Protocol: Human embryonic kidney HEK293T/17 (ATCC No. CRL-11268) and human hepatocellular HepG2 (ATCC No. HB-8065) cells were cultured in complete medium, composed of Dulbecco’s modified Eagle medium (DMEM; Gibco BRL) supplemented with 10% heat-inactivated fetal bovine serum (FBS) at 37 °C with 5% CO2. Dengue virus serotype 2 (DENV 2) strain 16681, DENV 1 (strain 16007), DENV 3 (strain 16562), DENV 4 (strain 1036), ZIKV (strain SV0010/15) and JEV (strain BJ1) were all propagated in the Aedes albopictus cell line C6/36 (ATCC No. CRL-1660). Viral progenies in the supernatant were collected and centrifuged at 1,000g to remove cell debris. The virus stocks were kept at − 80 °C until used. Virus titers were determined by standard plaque assay on LLC-MK2 cells (ATCC No. CCL-7).
(§1) HEK293T/17 cells were cultured on 6-well plates until 70% confluence was reached under standard conditions. The cells were mock-infected or infected with DENV 2 at a multiplicity (MOI) of 5 for 2 h. After infection, the medium was removed and the infected cells were incubated with appropriate concentrations of the VDR agonists until 24 h.p.i., in parallel with DMSO treated control cells. Experiments were performed independently triplicate.
(§2) For time course experiments, under conditions of pre-infection treatment, HEK293T/17 cells were pre-treated with an appropriate concentration of VDR agonists for 1, 3 or 6 h before infection, followed by incubation in complete medium. For treatment post-infection, infected cells were treated with VDR agonists at 0, 1, 3, 6 and 12 h.p.i. The infected cells and supernatant for both pre- and post-treated samples were collected at 24 h.p.i. Experiments were performed independently triplicate.

DENV 2 [2] = assay: Level of DENV 2 infection by flow cytometry (HEK293T/17 cells); format: cell-based, dengue virus; settings: for level of infection: HEK293T/17, vs 0.01% DMSO control; for level of infection, treatment at 6 and 12 h post-infection: read at 24 h.p.i.
Protocol: as §1, §2
HEK293T/17 cells were mock-infected or infected with DENV 2 at MOI 5 for 2 h, followed by treatment with the appropriate concentration of VDR agonists. At 24 hpi, the treated cells were harvested and Fc receptors were blocked with 10% goat serum (Gibco BRL, Gaithersburg, MD) for 30 min at 4 °C. The cells were washed with 1% BSA in 1X PBS/IFA (150 mM NaCl, 50 mM NaH2PO4, 50 m M Na2HPO4, pH to 7.4) and centrifuged at 6,000 g for 5 min. Then, the cells were fixed with 4% paraformaldehyde in 1X PBS/IFA at room temperature in the dark for 20 min, followed by the washing. Cell membrane permeabilization was performed using 0.2%Triton-X in 1X PBS/IFA for 10 min in the dark followed by overnight incubation with a 1:150 dilution of a pan-specific mouse monoclonal anti-dengue E protein antibody (HB114[44]). Cells were subsequently incubated for 1 h in the dark with a 1:40 dilution of a fluorescein isothiocyanate (FITC)-conjugated goat anti-mouse IgG antibody (KPL, Guilford, UK) with washing between each step 1% BSA/PBS-IFA. Finally, the cells were analyzed by flow cytometry on a BD FACSCalibur cytometer (Becton Dickinson, BD Biosciences, San Jose, CA) using the CELLQuest software. All experiments were performed independently in triplicate.

DENV 2 [3] = assay: Level of DENV 2 infection in HepG2 cells by flow cytometry; format: cell-based, dengue virus; settings: 10 μM, 24 h, DENV 2 MOI 5
Protocol: Given that HEK293T/17 cells are not representative of a DENV target tissue, the antiviral activity of the VDR agonists was evaluated in cells representative of a primary target cell. For this reason, HepG2 cells were infected with DENV 2, followed by treatment with 10 μM of the five effective VDR agonists (ZD-1, ZD-2, ZD-3, ZD-5, and ZD-6) for 24 h, after which the level of infection was determined by flow cytometry.
Figure 5 Antiviral activity of VDR agonists against DENV infection on HepG2 cells. HepG2 cells were mock-infected or infected with DENV 2 at MOI 5 for 2 h, followed by the treatment with 10 μM of ZD-1, ZD-2, ZD-3, ZD-5 and ZD-6 for 24 h.p.i. The treated cells were collected and level of infection determined by flow cytometry. p value; *< 0.05, **< 0.01, ***< 0.001 for significance. The experiment was performed independently in triplicate.
HEK293T/17 cells were mock-infected or infected with DENV 2 at MOI 5 for 2 h, followed by treatment with the appropriate concentration of VDR agonists. At 24 hpi, the treated cells were harvested and Fc receptors were blocked with 10% goat serum (Gibco BRL, Gaithersburg, MD) for 30 min at 4 °C. […] Finally, the cells were analyzed by flow cytometry on a BD FACSCalibur cytometer (Becton Dickinson, BD Biosciences, San Jose, CA) using the CELLQuest software. […]

CYP24A1 = assay: VDR-regulated gene expression by qRT-PCR, CYP24A1; format: cell-based, human; settings: 20 µM, 24 h, HEK293T/17, vs actin and 0.02% DMSO
Protocol: (§3) HEK293T/17 cells were incubated with either 10 µM of VDR agonists or 20 μM of commercial VDR agonist EB1089 (Tocris Cookson Ltd., Bristol, UK) for 24 h. Subsequently, the treated cell lysate was collected to determine the mRNA levels of the VDR gene as well as genes regulated by VDR. Total RNA was extracted and cDNA was synthesized as described above. Amplification was performed using specific primers, namely VDR-F: 5′-[…]-3′, VDR-R: 5′-AGTGGCGTCGGTTGTCCTT-3′, CYP27B1-F: 5′-[…]-3′, CYP27B1-R 5′-[…]-3′, CYP24A1-F: 5′-[…]-3′ and CYP24A1-R 5′-[…]-3′. The mRNA expression was normalized against β-actin and DMSO control-treated cells, respectively according to the following equation: ΔΔCt = ΔCt (gene)—ΔCt (DMSO). Experiments were performed independently in triplicate with triplicate real-time PCR.

VDR = assay: VDR-regulated gene expression by qRT-PCR, VDR; format: cell-based, human; settings: 20 µM, 24 h, HEK293T/17, vs actin and 0.02% DMSO
Protocol: as §3

CYP27B1 = assay: VDR-regulated gene expression by qRT-PCR, CYP27B1; format: cell-based, human; settings: 20 µM, 24 h, HEK293T/17, vs actin and 0.02% DMSO
Protocol: as §3

[4] = system: DENV infected monocytic U937 cells or hepatic Huh-7 cells; design: method as in PMID 22387385; settings: U937 or Huh-7 cells; cited from earlier work
DENV 3 (strain 16562) = assay: Virus titer by plaque assay, DENV 3; format: cell-based, dengue virus; settings: 10 μM, 24 h, HEK293T/17, MOI 10
Protocol: (§4) For viruses other than DENV 2, HEK293T/17 cells were infected with DENV 1 (strain 16007), DENV 3 (strain 16562), DENV 4 (strain 1036) and ZIKV (strain SV0010/15) at MOI 10 and with JEV (strain BJ1) at MOI 1. At 2 h.p.i., the virus was removed and the cells were incubated with 10 μM of VDR agonist (ZD-6) in complete medium for 24 h, after which the supernatant was collected, and the virus titer was determined by standard plaque assay. Experiments were performed independently triplicate.

DENV 1 (strain 16007) = assay: Virus titer by plaque assay, DENV 1; format: cell-based, dengue virus; settings: 10 μM, 24 h, HEK293T/17, MOI 10
Protocol: as §4

JEV (strain BJ1) = assay: Virus titer by plaque assay, JEV; format: cell-based; settings: 10 μM, 24 h, HEK293T/17, MOI 1
Protocol: as §4

ZIKV (strain SV0010/15) = assay: Virus titer by plaque assay, ZIKV; format: cell-based; settings: 10 μM, 24 h, HEK293T/17, MOI 10
Protocol: as §4

DENV 4 (strain 1036) = assay: Virus titer by plaque assay, DENV 4; format: cell-based, dengue virus; settings: 10 μM, 24 h, HEK293T/17, MOI 10
Protocol: as §4

[5] = system: DENV 1, 3, 4, JEV and ZIKV; assay: Activity against other flaviviruses, plaque assay (all viruses together); format: cell-based; settings: 10 μM, 24 h, HEK293T/17, range over DENV 1, 3, 4, JEV, lowest for JEV and ZIKV
Protocol: as §4

[6] = 10 µM, 24 h, HEK293T/17, plaque assay
[7] = 20 μM, 24 h.p.i., HEK293T/17, plaque assay

SMILES	reduction of virus production (DENV 2 [1]; [6])	EC50 (DENV 2 [1]) [µM]	CC50 (HEK293T/17 cells) [µM]	level of infection (DENV 2 [2]; 10 µM, 24 h)	also measured
CSCCC(NC(=O)OC(C)(C)C)C(=O)Nc1ccc(C2N(c3ccc([N+](=O)[O-])cc3)C(=O)C3CCCN32)cc1 (stereo not drawn) [ZD-4]	over 1 Log10	33.5	520	–	infection levels reduced by (DENV 2 [2]; 10 µM, 24 h, HEK293T/17): approximately 50%
COc1cc(C2N(c3ccc([N+](=O)[O-])cc3)C(=O)C3CCCN32)ccc1O (stereo not drawn) [ZD-2]	2-3 Log10	11.8	314	highly significant reductions	–
O=C1C2CCCN2C(c2ccco2)N1c1ccc([N+](=O)[O-])cc1 (stereo not drawn) [ZD-1]	2-3 Log10	8.74	260	highly significant reductions	virus titer, treatment at 6 and 12 h post-infection (DENV 2 [1]; 10 µM): significant reductions; level of infection in HepG2 cells (DENV 2 [3]): modest; level of infection, treatment at 6 and 12 h post-infection (DENV 2 [2]; 10 µM): significant reductions
COc1ccc(CC2N(c3ccc([N+](=O)[O-])cc3)C(=O)C3CCCN32)cc1OC (stereo not drawn) [ZD-5]	2-3 Log10	8.46	439	highly significant reductions	virus titer, treatment at 6 and 12 h post-infection (DENV 2 [1]; 10 µM): significant reductions; level of infection, treatment at 6 and 12 h post-infection (DENV 2 [2]; 10 µM): significant reductions
C=C1/C(=C\C=C2/CCC[C@]3(C)[C@@H]([C@H](C)/C=C/C=C/C(O)(CC)CC)CC[C@@H]23)C[C@@H](O)C[C@@H]1O [EB1089, reference compound]	–	–	–	–	reduction of viral production (DENV 2 [1]; [7]): approximately 2 Log10; viral yield (DENV 2 [1]; [7]): significantly reduced; transcriptional level of CYP24A1 (CYP24A1): significantly up regulated; transcriptional level of VDR (VDR): significantly up regulated; levels of infected cells (DENV 2 [2]; 20 μM, 24 h.p.i., HEK293T/17): significantly reduced; transcriptional level of CYP27B1 (CYP27B1): significantly up regulated
CSCCC(NC(=O)OC(C)(C)C)C(=O)Oc1ccc(C2N(c3ccc([N+](=O)[O-])cc3)C(=O)C3CCCN32)cc1 (stereo not drawn) [ZD-20]	–	152	908	no significant reduction	effect on DENV 2 titer in the supernatant (DENV 2 [1]; [6]): no significant effect
CSCCC(N)C(=O)Oc1ccc(C2N(c3ccc([N+](=O)[O-])cc3)C(=O)C3CCCN32)cc1.Cl (stereo not drawn) [ZD-3]	–	7.47	394	highly significant reductions	–
C=C1/C(=C\C=C2/CCC[C@]3(C)[C@@H]([C@H](C)CCCC(C)(C)O)CC[C@@H]23)C[C@@H](O)C[C@@H]1O [1,25(OH)2D3, 1,25-dihydroxyvitamin D3]	–	–	–	–	numbers of infected cells [4]: decreased numbers of infected cells
O=C1C2CCCN2C(c2ccc(O)cc2)N1c1ccc([N+](=O)[O-])cc1 (stereo not drawn) [ZD-6]	2-3 Log10	11.3	277	highly significant reductions	virus production, DENV 3 (DENV 3 (strain 16562)): significantly inhibited; virus production, DENV 1 (DENV 1 (strain 16007)): significantly inhibited; virus production, JEV (JEV (strain BJ1)): significantly inhibited; virus production, ZIKV (ZIKV (strain SV0010/15)): significantly inhibited; virus production, DENV 4 (DENV 4 (strain 1036)): significantly inhibited; magnitude of inhibition of virus production [5]: 1–3 Log10
